Consider nine compounds from ChEMBL document CHEMBL1132305, “Effect of aromatic short-chain analogues of ceramide on axonal growth in hippocampal neurons” (1999).

The species named for this test is Rattus norvegicus. In words: Effect on the growth of axons of hippocampal neurons stimulated by basic fibroblast growth factor (bFGF), no. of axonal branch points/cell at 51 hr upon incubation with bFGF 1.52 0.09. The test is classed as functional.
Regarding `CC(=O)N[C@@H](CO)[C@H](O)/C=C/c1ccccc1`, the “No. of axonal branch points/cell” value came to 1.3.
For the compound `CCCCCCC/C=C/[C@@H](O)[C@H](CO)NC(=O)CCCCC`, the “No. of axonal branch points/cell” value stood at 1.3.
On to `CCCCCCC/C=C/[C@@H](O)[C@H](CO)NC(C)=O`, for which the “No. of axonal branch points/cell” value is listed as 1.5.
`CCCCCC(=O)N[C@@H](CO)[C@@H](O)/C=C/c1ccccc1`: the “No. of axonal branch points/cell” value turned out to be 1.22.
To `CCCCCCC/C=C/[C@H](O)[C@H](CO)NC(=O)CCCCC` belongs 1.18.
On to `CCCCCC(=O)N[C@@H](CO)[C@H](O)/C=C/c1ccccc1`, for which the “No. of axonal branch points/cell” value stood at 1.45.
Take `CCCCCCCC(=O)N[C@@H](CO)[C@H](O)/C=C/c1ccccc1`: the “No. of axonal branch points/cell” value is given as 1.4.
For `CCCC(=O)N[C@@H](CO)[C@H](O)/C=C/c1ccccc1`, the “No. of axonal branch points/cell” value worked out at 1.38.
For the compound `CCCC[C@H](C)[C@@H](OC(=O)C[C@H](CC(=O)O)C(=O)O)[C@@H](C[C@H](C)C[C@@H](O)CCCC[C@@H](O)C[C@H](O)[C@H](C)N)OC(=O)C[C@H](CC(=O)O)C(=O)O`, the “No. of axonal branch points/cell” value came to 1.12.
